The text below walks through data of patent publication US20240139197A1, “INHIBITION OF KDM5A FOR PROMOTING ANTIGEN PRESENTATION, INCREASING CD8+ T CELL INFILTRATION AND BOOSTING ANTI-TUMOR IMMUNE RESPONSE” (The Wistar Institute of Anatomy and Biology, priority 2022, published 2024).

One assay has as its system HGS2 cells. Nature of the assay: cell viability by colony formation assay, HGS2. The assay is classed as cell-based, mouse. The following applies: HGS2, 10 μM, 8 days. The method, then:
FIG. 6A-FIG. 6K show KDM5A inhibition promotes anti-tumor immune response in vivo. (FIG. 6A) Expression of H3K4me3, Kdm5a and a loading control b-actin in an independent second doxycycline-inducible shKdm5a ID8 clone treated with or without 2 μg/mL of doxycycline. (FIG. 6B) Same as FIG. 6A, but doxycycline-inducible shKdm5a ID8 cells were plated into 24 well plates and treated with 2 μg/mL of doxycycline the same day. Cells were incubated for 8 days. Relative cell viability was determined by colony formation assay. (FIG. 6C) Expression of H3K4me3, Kdm5a and a loading control b-actin in HGS2 cells treated 10 μM of CPI-455 or vehicle controls for 72 hours. […] Relative cell viability was determined by colony formation assay. (FIG. 6E-FIG. 6F) Bioluminescence signal was measured by IVIS system in indicated animal groups in the immunocompetent C57BL/6 mouse model once a week (FIG. 6E) and the survival of the indicated groups was determined by Kaplan-Meier survival curves (FIG. 6F) (n=5 mice per group). […] Ascites volumes produced from the indicated groups were quantified (FIG. 6H). n=5 mice per group. […] (FIG. 6J-FIG. 6K) Bioluminescence signal was measured by IVIS system in indicated animal groups in the immunocompromised NSG mouse model once a week (FIG. 6J), or examined for Kaplan-Meier survival curves for the indicated groups (FIG. 6K). […]

Assay [1] deals with ID8 cells. The experiment in a line: cell viability by colony formation assay, ID8. The assay is classed as cell-based, mouse. The following applies: ID8, 10 μM, 8 days. The method, then:
FIG. 2A-FIG. 2J show KDM5A inhibition suppresses tumor growth in vivo in an immune-competent mouse model of ovarian cancer. (FIG. 2A) Expression of Kdm5a, H3K4me3, and a loading control β-actin in doxycycline-inducible shKdm5a ID8 mouse EOC cells treated with or without 2 μg/mL of doxycycline. (FIG. 2B) ID8 cells were plated into 24 well plates and treated with 2 μg/mL of doxycycline the same day. Cells were incubated for 8 days. Relative cell viability was determined by colony formation assay. (FIG. 2C) Expression of Kdm5a, H3K4me3, and a loading control β-actin in ID8 cells treated with 10uM CPI-455 or vehicle control. (FIG. 2D) ID8 cells were plated into 24 well plates and incubated with 10 μM CPI-455 for 8 days with fresh drug-containing media every 3 days. Relative cell viability was determined by colony formation assay. (FIG. 2E) Ascites produced in C57BL/6 mice injected with doxycycline-inducible shKdm5a ID8 cells treated with control or doxycycline containing food. (FIG. 2F) Quantification of ascites volumes from FIG. 2E. (FIG. 2G) Kaplan-Meier survival curves for the indicated groups. […] (FIG. 21) Quantification of ascites volumes from FIG. 2H. […] Data represent mean±SEM of three biological repeats or 5 mice per group; P-value was calculated by using a two-tailed Student t test except in FIG. 2G and FIG. 2J by log rank tests. […]

For assay [2], the system named is ID8 cells. Nature of the assay: syngeneic ovarian cancer mouse model, CPI-455 treatment. It is filed as in vivo. The following applies: 50 mg/kg i.p., immuno-competent C57BL/6 mice bearing ID8.
The test system of another assay is H3K4me3 in ID8 cells. The experiment in a line: immunoblot of H3K4me3, ID8. The assay is classed as cell-based, mouse. The note with it: ID8, 10 μM. As for the experimental part: FIG. 2A-FIG. 2J show KDM5A inhibition suppresses tumor growth in vivo in an immune-competent mouse model of ovarian cancer. (FIG. 2A) Expression of Kdm5a, H3K4me3, and a loading control β-actin in doxycycline-inducible shKdm5a ID8 mouse EOC cells treated with or without 2 μg/mL of doxycycline. (FIG. 2B) ID8 cells were plated into 24 well plates and treated with 2 μg/mL of doxycycline the same day. Cells were incubated for 8 days. Relative cell viability was determined by colony formation assay. (FIG. 2C) Expression of Kdm5a, H3K4me3, and a loading control β-actin in ID8 cells treated with 10uM CPI-455 or vehicle control. (FIG. 2D) ID8 cells were plated into 24 well plates and incubated with 10 μM CPI-455 for 8 days with fresh drug-containing media every 3 days. Relative cell viability was determined by colony formation assay. (FIG. 2E) Ascites produced in C57BL/6 mice injected with doxycycline-inducible shKdm5a ID8 cells treated with control or doxycycline containing food. (FIG. 2F) Quantification of ascites volumes from FIG. 2E. […] (FIG. 21) Quantification of ascites volumes from FIG. 2H. […] Data represent mean±SEM of three biological repeats or 5 mice per group; P-value was calculated by using a two-tailed Student t test except in FIG. 2G and FIG. 2J by log rank tests.
Cells were trypsinized and washed two times with PBS. […] Protein concentration was measured by the BCA assay (Pierce, Cat #23225). […]
(In general: A western blot detects proteins with antibodies after separation by electrophoresis.)

In the case of CPI-455, the cell viability result with HGS2 cells is listed as “did not affect cell viability”. Moreover, the cell viability entry in the assay with ID8 cells [1] is given as “did not affect cell viability”. Also, in the assay on ID8 cells [2], the ascites production entry is listed as “significantly reduced ascites production” and the “survival of tumor bearing mice” value is on record as “improved the survival”. Also, in the assay on H3K4me3 in ID8 cells, the H3K4me3 levels result was “increase H3K4me3 levels”.
